Laboratory results published in US20250360134A1, “6-6 OR 5-6 FUSED BICYCLIC COMPOUNDS COMPRISING A PYRI(MI)DINE RING USEFUL IN THE|TREATMENT OF INFECTIOUS DISEASES” (INSTITUT NATIONAL DE LA SANTE ET DE LA RECHERCHE MEDICALE …, priority 2020, published 2025).
Structures can show the parent of a compound that is named as a salt. Where two headings read alike, the source gives them in different places.

What was measured:
[1] = tested on: human duplex sequence FdxT; experiment: FRET-melting, FdxT; details: duplex control, K+ condition, 2 μM compound, 0.2 μM oligonucleotide
[2] = tested on: Plasmodium falciparum 3D7; experiment: In vitro antiplasmodial activity, SYBR Green I, strain 3D7
Experimental: (§3) The in vitro antiplasmodial activities were tested over concentrations ranging from 39 to 40 μm against culture-adapted Plasmodium falciparum: reference strains 3D7 and W2. […] The parasites were cultivated in RPMI medium (Sigma-Aldrich, Lyon, France) supplemented with 0.5% Albumax I (Life Technologies Corporation, Paisley, UK), hypoxanthine (Sigma-Aldrich), and gentamicin (Sigma-Aldrich) with human erythrocytes and were incubated at 37° C. in a candle jar, as described in Desjardins R E et al., Antimicrob Agents Chemother, 1979; 16:710-18.
(§4) The P. falciparum drug susceptibility test was carried out in 96-well flat bottom sterile plates in a final volume of 250 μL. After a 48-hour incubation with the drugs, quantities of DNA in treated and control cultures of parasites in human erythrocytes were quantified using the SYBR Green I (Sigma-Aldrich) fluorescence-based method as described in Bennett T N et al, Antimicrob Agents Chemother, 2004; 48:1807-10. Briefly, after incubation, plates were frozen at −20° C. until use. Plates were then thawed for 2 hours at room temperature, and 100 μL of each homogenized culture was transferred to a well of a 96-well flat bottom sterile black plate (Nunc, Inc., Rochester, NY) that contained 100 μL of the SYBR Green I lysis buffer (2×SYBR Green, 20 mM Tris base pH 7.5, 5 mM EDTA, 0.008% w/v saponin, 0.08% w/v Triton X-100). […] Plates were incubated for 1 hour at room temperature and then read on a fluorescence plate reader (Tecan, Grödig, Austria) using excitation and emission wavelengths of 485 and 535 nm, respectively. Concentrations inhibiting 50% of the parasite's growth (half maximal inhibitory concentration or IC50 values) were then calculated from the obtained experimental results by non-linear regression analysis of data from dose-response curves, using TableCurve 2D version 5.0 software (Systat Software, San Jose, CA). IC50 values are reported as means calculated from three independent experiments, as described in H. Kaddouri et al., Antimicrob.

[3] = tested on: Plasmodium falciparum W2; experiment: In vitro antiplasmodial activity, SYBR Green I, strain W2
Experimental: as §3, §4

[4] = tested on: HepG2 cells; experiment: Cytotoxicity evaluation, MTT; assay type: cell-based, human
Experimental: (§1) The aim of this assay was to evaluate the impact of metabolic activation of the tested compounds on cell viability.
(§2) A cytotoxicity evaluation was performed using the method reported in Emami S A et al., Iran J Basic Med Sci 2012; 15:807-11 to determine the cytotoxic concentrations 50% (CC50) and using doxorubicin as a cytotoxic reference compound. These assays were performed in human HepG2 cells. HepG2 cells were purchased from ATCC (ref HB-8065). These cells are a commonly used human hepatocarcinoma-derived cell line that has characteristics similar to those of primary hepatocytes. These cells express many hepatocyte-specific metabolic enzymes, thus enabling the cytotoxicity of tested product metabolites to be evaluated. Briefly, cells in 100 μl of complete RPMI medium [RPMI supplemented with 10% FCS, 1% 1-glutamine (200 mM), penicillin (100 U/ml), and streptomycin (100 μg/ml)] were inoculated into each well of 96-well plates and incubated at 37° C. in a humidified chamber in 6% CO2. After 24 hours, 100 μl of medium with test compound at various concentrations dissolved in DMSO (final concentration less than 0.5% v/v) was added, and the plates were incubated for 72 hours at 37° C. Duplicate assays were performed for each sample. Each well was microscopically examined for precipitate formation before the medium was aspirated from the wells. After aspiration, 100 μl of MTT solution (0.5 mg/ml in medium without FCS) were then added to each well. Cells were incubated for 2 hours at 37° C. MTT solution was removed, and DMSO (100 μl) was added to dissolve the resulting blue formazan crystals. Plates were shaken vigorously (300 rpm) for 5 min. The absorbance was measured at 570 nm with 630 nm as reference wavelength in a BIO-TEK ELx808 Absorbance Microplate Reader. DMSO was used as blank and doxorubicin (Sigma-Aldrich) as positive control. Cell viability was calculated as percentage of control (cells incubated without compound).

[5] = tested on: T. brucei brucei AnTat 1.9; experiment: In vitro antitrypanosomal activity, Alamar Blue assay; assay type: cell-based, Trypanosoma brucei brucei; details: read-out: IC50 T. brucei brucei
Experimental: The effects of the tested compounds on the growth of T. brucei brucei were assessed using an Alamar Blue® assay described in B. Raz et al., Acta Trop. 1997, 68, 139. T. brucei brucei AnTat 1.9 (IMTA, Antwerpen, Belgium) was cultured in MEM with Earle's salts, supplemented according to the protocol disclosed in T. Baltz et al., EMBO J. 1985, 4, 1273, with the following modifications: 0.5 mM mercaptoethanol (Sigma-Aldrich), 1.5 mM 1-cysteine (Sigma-Aldrich), 0.05 mM bathocuproine sulfate (Sigma-Aldrich), and 20% heat-inactivated horse serum (Gibco, France) at 37° C. and 5% CO2. Samples were incubated at an average density of 2000 parasites/well in sterile 96-well plates (Fisher, France) with various concentrations of compounds dissolved in 0.9% NaCl. All doses were tested in duplicate. Appropriate controls treated with solvents 0.9% NaCl or DMSO or with suramin, pentamidine, eflornithine, and fexinidazole (reference drugs purchased from Sigma-Aldrich and Fluorochem, UK) were added to each set of experiments. After a 69-hour incubation at 37° C., 10 μl of the viability marker Alamar Blue (Fisher) was added to each well, and the plates were incubated for 5 hour. The plates were read in a PerkinElmer ENSPIRE (Germany) microplate reader using an excitation wavelength of 530 nm and an emission wavelength of 590 nm. The IC50 was defined as the concentration of drug necessary to inhibit by 50% the activity of T. brucei brucei compared to the control. IC50 values were calculated using a non-linear regression analysis of dose-response curves performed using GraphPad Prism software (USA). IC50 values were calculated from three independent experiments.

[6] = tested on: SARS-CoV-2; experiment: microbe, parasite or virus in culture; assay type: cell-based; details: Severe acute respiratory syndrome coronavirus 2; A549 cells expressing human ACE2, 72 hours after infection, RT-PCR of the N-gene; read-out: IC50 RTqPCR SARS-CoV-2
[7] = tested on: human telomeric sequence F21T; experiment: FRET-melting, F21T; details: K+ condition, 2 μM compound, 0.2 μM oligonucleotide
[8] = Cytotoxicity evaluation, MTT; assay type: cell-based, human; details: HepG2 cells (hepatocarcinoma-derived, ATCC HB-8065); human HepG2 cells, 72 hours, MTT
Experimental: as §1, §2

[9] = tested on: Plasmodium telomeric sequence FPf8T; experiment: FRET-melting, FPf8T; details: K+ condition, 2 μM compound, 0.2 μM oligonucleotide
[10] = tested on: Plasmodium telomeric sequence FPf1T; experiment: FRET-melting, FPf1T; details: K+ condition, 2 μM compound, 0.2 μM oligonucleotide
[11] = tested on: Trypanosoma 9 and 11 chromosomic sequence FTrypBT; experiment: FRET-melting, FTrypBT; details: K+ condition, 2 μM compound, 0.2 μM oligonucleotide
[12] = Plasmodium falciparum, 3D7, 48 h, read-out: IC50 Plasmodium falciparum 3D7, chloroquine-sensitive strain 3D7, 48-hour incubation
[13] = Plasmodium falciparum, W2, 48 h, read-out: IC50 Plasmodium falciparum W2, chloroquine-resistant strain W2, 48-hour incubation
[14] = Trypanosoma brucei, 69-hour incubation, Alamar Blue

| Compound | FRET-melting values in K+ conditions at 2 μM ΔTm FdxT [1] | IC50 ([2]; read-out: IC50 Plasmodium falciparum 3D7, chloroquine-sensitive strain 3D7, 48-hour incubation) | IC50 ([3]; read-out: IC50 Plasmodium falciparum W2, chloroquine-resistant strain W2, 48-hour incubation) | IC50 [4] | IC50 ([5]; 69-hour incubation, Alamar Blue) | IC50 [6] | IC50 [2, 12] | FRET-melting values in K+ conditions at 2 μM ΔTm F21T [7] | IC50 [3, 13] | IC50 at 72 h [8] | FRET-melting values in K+ conditions at 2 μM ΔTm FPf8T [9] | FRET-melting values in K+ conditions at 2 μM ΔTm FPf1T [10] | IC50 ([5]; Trypanosoma brucei, 69 h) | FRET-melting values in K+ conditions at 2 μM ΔTm FtryBT [11] | IC50 [5, 14] |
| --- | --- | --- | --- | --- | --- | --- | --- | --- | --- | --- | --- | --- | --- | --- | --- |
| 2-(3-Dimethylaminopropylamino)-4-{4-[(4-dimethylaminopropyl)aminomethyl]phenyl}-7-phenyl-7H-pyrrolo[2,3-d]pyrimidine oxalate [Compound 14B] | −0.7 °C | 1480 ± 290 nM | 290 ± 100 nM | 13500 nM | 890 ± 90 nM | – | – | – | – | – | – | – | – | – | – |
| CN(C)CCCNCc1ccc(-c2nc(-c3ccc(CNCCCN(C)C)cc3)c3ccn(-c4ccccc4)c3n2)cc1 [Compound 1B, 2,4-bis{4-[(3-dimethylaminopropyl)aminomethyl]phenyl}-7-phenyl-7H-pyrrolo[2,3-d]pyrimidine oxalate] | 1.2 °C | – | – | – | – | 330 nM | 2220 ± 120 nM | 22.8 °C | 2710 ± 140 nM | 1640 nM | 23.5 °C | 23.6 °C | 550 ± 70 nM | 20.5 °C | – |
| CN(C)CCCNCc1ccc(-c2nc(-c3ccc(CNCCCN(C)C)cc3)c3ccn(-c4ccc(CNCCCN(C)C)cc4)c3n2)cc1 [Compound 13B, 2,4,7-Tri{4-[(3-dimethylaminopropyl)aminomethyl]phenyl}-7H-pyrrolo[2,3-d]pyrimidine oxalate] | 5.4 °C | – | – | – | – | 170 nM | 2440 ± 1270 nM | 29.1 °C | 10600 ± 690 nM | 26700 nM | 34.6 °C | 33.1 °C | 860 ± 70 nM | 30.7 °C | – |
| CN1CCN(CCCNCc2ccc(-c3nc(-c4ccc(CNCCCN5CCN(C)CC5)cc4)c4ccsc4n3)cc2)CC1 [Compound 27B, 2,4-Bis{4-[(3-(4-methylpiperazin-1-yl)propyl)aminomethyl]phenyl}thieno[2,3-d]pyrimidine oxalate] | −0.10 °C | – | – | – | – | – | 1950 ± 680 nM | 9.72 °C | 4180 ± 30 nM | 11200 nM | 9.0 °C | 9.6 °C | 890 ± 100 nM | 7.9 °C | – |
| CN(C)CCCNCc1ccc(-c2nc(-c3ccc(CNCCCN(C)C)cc3)c3sccc3n2)cc1 [Compound 29B, 2,4-Bis{4-[(4-dimethylaminopropyl)aminomethyl]phenyl}thieno[3,2-d]pyrimidine oxalate] | 1.8 °C | – | – | – | – | – | 1370 ± 240 nM | 19.0 °C | 2170 ± 410 nM | 3190 nM | 20.9 °C | 20.1 °C | – | 17.1 °C | 140 ± 20 nM |
| CN1CCN(CCCNCc2ccc(-c3nc(-c4ccc(CNCCCN5CCN(C)CC5)cc4)c4sccc4n3)cc2)CC1 [Compound 30B, 2,4-Bis{4-[(3-(4-methylpiperazin-1-yl)propyl)aminomethyl]phenyl}thieno[3,2-d]pyrimidine oxalate] | 0.5 °C | – | – | – | – | – | 10800 ± 2950 nM | 14.5 °C | 30 nM | 18900 nM | 15.2 °C | 14.9 °C | 750 ± 100 nM | 12.8 °C | – |
| CN(C)CCCNCc1ccc(-c2nc(NCCCN(C)C)nc3ccsc23)cc1 [Compound 31B, 2-(3-Dimethylaminopropylamino)-4-{4-[(4-dimethylaminopropyl)aminomethyl]phenyl}thieno[3,2-d]pyrimidine oxalate] | −0.7 °C | – | – | – | – | – | 40 ± 10 nM | 2.0 °C | 5690 ± 1210 nM | > 60000 nM | 2.9 °C | 1.8 °C | – | 1.8 °C | 2580 ± 210 nM |
| CCN(CC)CCCCNCc1ccc(-c2nc(-c3ccc(CNCCCCN(CC)CC)cc3)c3ccn(-c4ccccc4)c3n2)cc1 [Compound 33B, oxalate] | – | – | – | – | – | 550 nM | 2470 ± 190 nM | – | 700 ± 150 nM | – | – | – | – | – | – |
| CC(C)N(CCCCCNCc1ccc(-c2nc(-c3ccc(CNCCCCCN(C(C)C)C(C)C)cc3)c3ccn(-c4ccccc4)c3n2)cc1)C(C)C [Compound 34B, oxalate] | – | – | – | – | – | 170 nM | 930 ± 150 nM | – | 770 ± 70 nM | – | – | – | – | – | – |
| CN(C)CCCCCNCc1ccc(-c2nc(-c3ccccc3)c3ccn(-c4ccc(CNCCCCCN(C)C)cc4)c3n2)cc1 [Compound 35B, oxalate] | 3.49 °C | – | – | – | – | 560 nM | 6760 ± 470 nM | 27.23 °C | 4740 ± 900 nM | – | 33.76 °C | 25.4 °C | – | 21.55 °C | – |
